Source: patent US20210070747A1, “2(1H)-QUINOLINONE DERIVATIVE” (priority 2017, published 2021)
Values after ≈ are worked out from the molar mass of the structure shown. Counter-ions that a name gives are not always drawn. Like-named read-outs stand apart in the source and are kept apart here.

Experiments:
[1] = target: T1, E. coli topoisomerase IV (Escherichia coli, UniProt P20083); test: Test for evaluating the activity of inhibiting E. coli topoisomerase IV enzyme (relaxation); format: biochemical
T1 construct: purchased Inspiralis
T1 sequence (P20083 whole entry): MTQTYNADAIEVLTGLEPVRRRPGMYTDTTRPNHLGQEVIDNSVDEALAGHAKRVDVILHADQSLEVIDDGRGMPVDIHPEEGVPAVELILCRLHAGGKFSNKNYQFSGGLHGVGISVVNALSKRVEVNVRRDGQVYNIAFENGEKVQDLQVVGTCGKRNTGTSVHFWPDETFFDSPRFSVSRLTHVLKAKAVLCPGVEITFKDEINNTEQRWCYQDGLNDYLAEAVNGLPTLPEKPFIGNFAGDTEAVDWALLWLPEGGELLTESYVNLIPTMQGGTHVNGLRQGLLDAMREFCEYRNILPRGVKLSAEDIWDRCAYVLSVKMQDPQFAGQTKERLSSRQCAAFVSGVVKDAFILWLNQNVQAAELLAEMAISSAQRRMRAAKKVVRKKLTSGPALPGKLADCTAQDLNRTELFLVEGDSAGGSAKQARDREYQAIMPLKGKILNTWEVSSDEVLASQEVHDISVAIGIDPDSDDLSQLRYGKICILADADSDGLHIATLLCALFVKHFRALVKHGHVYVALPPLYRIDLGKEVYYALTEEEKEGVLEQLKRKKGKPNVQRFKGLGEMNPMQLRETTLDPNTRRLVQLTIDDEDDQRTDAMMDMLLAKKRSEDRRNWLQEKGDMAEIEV
T1 sequence (P0AFI2 whole entry, further chain): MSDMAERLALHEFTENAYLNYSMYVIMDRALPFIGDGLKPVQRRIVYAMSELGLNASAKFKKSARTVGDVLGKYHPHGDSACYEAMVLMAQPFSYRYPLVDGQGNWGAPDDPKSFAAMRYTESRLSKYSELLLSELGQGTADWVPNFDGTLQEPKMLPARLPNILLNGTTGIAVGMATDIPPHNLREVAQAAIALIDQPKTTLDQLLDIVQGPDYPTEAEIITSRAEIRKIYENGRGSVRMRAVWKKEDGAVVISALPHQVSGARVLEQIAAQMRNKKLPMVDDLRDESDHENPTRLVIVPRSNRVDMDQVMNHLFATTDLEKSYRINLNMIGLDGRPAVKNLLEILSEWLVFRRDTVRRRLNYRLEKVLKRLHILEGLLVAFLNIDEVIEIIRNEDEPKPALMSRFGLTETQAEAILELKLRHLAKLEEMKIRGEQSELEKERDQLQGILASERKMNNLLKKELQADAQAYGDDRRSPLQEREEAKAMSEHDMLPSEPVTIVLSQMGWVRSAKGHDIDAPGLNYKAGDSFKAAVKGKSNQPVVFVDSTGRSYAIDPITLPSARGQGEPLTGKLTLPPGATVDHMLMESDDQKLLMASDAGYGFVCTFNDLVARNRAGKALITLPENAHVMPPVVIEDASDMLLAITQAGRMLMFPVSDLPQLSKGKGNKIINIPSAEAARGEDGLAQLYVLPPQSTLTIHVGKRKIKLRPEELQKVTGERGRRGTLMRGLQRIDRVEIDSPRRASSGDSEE
Experimental: The enzymatic activity of E. coli topoisomerase IV was measured by a method comprising reacting topoisomerase IV and its substrate, supercoiled pBR322 (Inspiralis), in the presence of ATP and detecting the post-reaction supercoiled pBR322/relaxed pBR322 ratio with H19.
Specifically, to 2 ng/μL of supercoiled pBR322, E. coli topoisomerase IV enzyme (Inspiralis) was added at a final concentration of 0.0075 U/μL and the mixture was incubated for 30 minutes at room temperature. This reaction was carried out in 20 mmol/L tris-HCl buffered solution (pH 8.0) comprising 0.5 mmol/L ATP, 0.005% bridge 35, 35 mmol/L ammonium acetate, 8 mmol/L magnesium chloride, 4.6% glycerol, and 1 mmol/L dithiothreitol. To the reaction mixture, H19 was added to bring the reaction to an end; thereafter, the supercoiled pBR322/relaxed pBR322 ratio was detected at excitation wavelength/emission wavelength=485 nm/535 nm. An inhibition curve was obtained by allowing the analyte compound to be present at varying concentrations during the reaction described above.

[2] = test system: N. gonorrhoeae ATCC 49226; test: Test for evaluating antibacterial activity (N. gonorrhoeae), broth microdilution MIC; format: cell-based; settings: Neisseria gonorrhoeae, ATCC49226; 35° C., 24 hours, gonococcal broth
In short: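 Broth microdilution in gonococcal broth with 1% supplement C, inoculum from overnight chocolate II agar culture at McFarland 0.5 diluted 5-fold.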

[3] = test system: E. Coli ATCC 25922; test: Test for evaluating antibacterial activity (E. coli), broth microdilution MIC; format: cell-based; settings: Escherichia coli, ATCC25922; 35° C., 18 hours, cation-adjusted Mueller-Hinton medium
In short: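 Broth microdilution per modified CLSI method in cation-adjusted Mueller-Hinton medium. Inoculum from overnight heart infusion agar growth, McFarland 0.5 suspension diluted 10-fold; incubation 35° C for 18 hours. MIC taken as lowest drug concentration with no visible growth.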

[4] = target: T2, E. coli DNA gyrase (Escherichia coli, UniProt P0AES6); test: Test for evaluating the activity of inhibiting E. coli DNA gyrase enzyme (Method 2, supercoiling, recombinant gyrA/gyrB complex); format: biochemical
T2 construct: made in house; host or cells: E. coli BL21 (DE3)
In short: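 Recombinant E. coli gyrA/gyrB complex (His-tagged, BL21(DE3)-expressed, Ni-NTA purified; 0.135 nmol/mL final) supercoiled relaxed pBR322 (1 ng/μL) with 0.5 mmol/L ATP in pH 8.0 Tris buffer, 60 min at room temperature. H19 stopped the reaction; supercoiled/relaxed ratio read at 485/535 nm, inhibition curves built from varying compound concentrations.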

[5] = target: T2, E. coli DNA gyrase; test: Test for evaluating the activity of inhibiting E. coli DNA gyrase enzyme (Method 1, supercoiling, Inspiralis enzyme); format: biochemical
In short: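 Relaxed pBR322 (1 ng/μL) supercoiled by E. coli gyrase (0.006 U/μL final) with 0.5 mmol/L ATP in 20 mmol/L Tris-HCl pH 8.0, 8 mmol/L MgCl2, 35 mmol/L ammonium acetate, 60 min, room temperature. Stopped with H19; supercoiled/relaxed ratio read at 485/535 nm; inhibition curve across compound concentrations.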

[6] = read-out: E. Coli TopoIV relaxation IC50
[7] = Method 2, read-out: E. Coli Gyrase supercoiling IC50
[8] = Method 1, read-out: E. Coli Gyrase supercoiling IC50

| Compound | IC50 [1, 6] [nM] | MIC [2] [µg/mL] | MIC [3] [µg/mL] | IC50 [4, 7] [nM] | IC50 [4] [nM] | IC50 [1] [nM] | IC50 [5, 8] [nM] | IC50 [5] [nM] |
| --- | --- | --- | --- | --- | --- | --- | --- | --- |
| CNc1cccc2cc(C(=O)Nc3ccc(C(=O)O)cc3)c(=O)[nH]c12 [Example 2, 4-{[8-(methylamino)-2-oxo-1,2-dihydroquinoline-3-carbonyl]amino} benzoic acid] | 980 | > 1 | 64 (≈ 190 µM) | – | – | – | – | – |
| CNc1cccc2cc(C(=O)NCCc3cccc(C(=O)O)c3)c(=O)[nH]c12 [Example 5, 3-(2-{[8-(methylamino)-2-oxo-1,2-dihydroquinoline-3-carbonyl]amino}ethyl)benzoic acid] | 17000 | – | > 64 | 9.75 | – | – | – | – |
| CNc1cc(F)cc2cc(C(=O)Nc3ccc(C(=O)O)cc3)c(=O)[nH]c12 [Example 33, 4-[[6-Fluoro-8-(methylamino)-2-oxo-1,2-dihydroquinoline-3-carbonyl]amino]benzoic Acid] | – | 0.004 (≈ 0.0113 µM) | 16 (≈ 45 µM) | – | 0.36 | 219 | – | – |
| CNc1cc(F)cc2cc(C(=O)Nc3ccc(C(=O)NCCN4CCOCC4)cc3)c(=O)[nH]c12 [Example 40, 6-Fluoro-8-(methylamino)-N-(4-[[2-(morpholin-4-yl)ethyl]carbamoyl]phenyl)-2-oxo-1,2-dihydroquinoline-3-carboxamide] | 1300 | – | 4 (≈ 8.56 µM) | 7.29 | – | – | – | – |
| CNc1cc(F)cc2cc(C(=O)Nc3ccccc3CN(C)C3CCCCC3)c(=O)[nH]c12 [Example 52, N-(2-{[cyclohexyl(methyl)amino]methyl}phenyl)-6-fluoro-8-(methylamino)-2-oxo-1,2-dihydroquinoline-3-carboxamide] | 519 | 0.5 (≈ 1.15 µM) | 16 (≈ 36.7 µM) | – | – | – | 2.47 | – |
| CNc1cc(F)cc2cc(C(=O)Nc3cnc(C(=O)O)nc3)c(=O)[nH]c12 [Example 65, 5-[[6-Fluoro-8-(methylamino)-2-oxo-1,2-dihydroquinoline-3-carbonyl]amino]pyrimidine-2-carboxylic Acid] | 32.5 | 0.5 (≈ 1.4 µM) | > 16 | – | – | – | 0.95 | – |
| CNc1cc(F)cc2cc(C(=O)Nc3ccc(C(=O)O)cc3CN(C)C3CCCCC3)c(=O)[nH]c12 [Example 70, 3-{[cyclohexyl (methyl)amino]methyl}-4-{[6-fluoro-8-(methylamino)-2-oxo-1,2-dihydroquinoline-3-carbonyl]amino} bezoic acid-hydrochloride] | – | 0.03 | 8 | – | – | 47.4 | – | 0.53 |
| CNc1cc(F)cc2cc(C(=O)Nc3ccc(C(=O)O)cc3CN(C)C)c(=O)[nH]c12 [Example 85, 3-[(dimethylamino)methyl]-4-{[6-fluoro-8-(methylamino)-2-oxo-1,2-dihydroquinoline-3-carbonyl]amino} benzoic acid] | – | 2 (≈ 4.85 µM) | > 4 | – | 0.61 | 176 | – | – |
| CNc1cc(F)cc2cc(C(=O)Nc3ccc(C(=O)O)cc3CN3CCCCC3)c(=O)[nH]c12 [Example 96, 4-{[6-fluoro-8-(methylamino)-2-oxo-1,2-dihydroquinoline-3-carbonyl]amino}-3-[(piperidine-1-yl)methyl] benzoic acid] | – | 0.015 (≈ 0.0332 µM) | 4 (≈ 8.84 µM) | – | 0.31 | 15.3 | – | – |
| CCCCCN(C)Cc1cc(C(=O)O)ccc1NC(=O)c1cc2cc(F)cc(NC)c2[nH]c1=O [Example 98, 4-{[6-fluoro-8-(methylamino)-2-oxo-1,2-dihydroquinoine-3-carbonyl]amino}-3-{[methyl (pentyl)amino)methyl} benzoic acid] | – | 0.06 (≈ 0.128 µM) | 4 (≈ 8.54 µM) | – | 0.21 | 41.4 | – | – |
| CNc1cc(F)cc2cc(C(=O)Nc3ccc(C(=O)O)cc3CN(CCO)C3CCCCC3)c(=O)[nH]c12.Cl [Example 104, 3-{[cyclohexyl (2-hydroxyethyl)amino]methyl}-4-{[6-fluoro-8-(methylamino)-2-oxo-1,2-dihydroquinoline-3-carbonyl]amino} benzoic acid-hydrochloride] | – | 0.015 | 8 | – | 0.29 | 23.4 | – | – |
| CNc1cc(F)cc2cc(C(=O)Nc3ccc(C(=O)O)cc3CN(CC(=O)O)C3CCCCC3)c(=O)[nH]c12 [Example 107, 3-{[(carboxymethyl) (cyclohexyl)amino]methyl} -4-{[6-fluoro-8-(methylamino)-2-oxo-1,2-dihydroquinoline-3-carbonyl]amino} benzoic acid] | 76.3 | 0.5 (≈ 0.953 µM) | > 64 | 0.57 | – | – | – | – |
| CNc1cc(F)cc2c(O)c(C(=O)Nc3ccc(C(=O)O)cc3)c(=O)[nH]c12 [Example 117, 4-[[6-Fluoro-4-hydroxy-8-(methylamino)-2-oxo-1,2-dihydroquinoline-3-carbonyl]amino]benzoic Acid] | 62.9 | 0.0005 (≈ 0.00135 µM) | 1 (≈ 2.69 µM) | 1.1 | – | – | – | – |
| CNc1cc(F)cc2cc(C(=O)Nc3ccccc3CN(CCO)C3CCCCC3)c(=O)[nH]c12 [Example 123, N-(2-{[cyclohexyl(2-hydroxyethyl)amino]methyl}phenyl)-6-fluoro-8-(methylamino)-2-oxo-1,2-dihydroquinoline-3-carboxamide] | 615 | – | 8 (≈ 17.1 µM) | 3.59 | – | – | – | – |
| CNc1cc(F)cc2c(NCC3CCNC3)c(C(=O)Nc3ccc(C(=O)O)cc3)c(=O)[nH]c12.O=CO (stereo not shown) [Example 133, 4-{[6-fluoro-8-(methylamino)-2-oxo-4-{[(pyrrolidine-3-yl)methyl]amino}-1,2-dihydroqunoline-3-carbonyl]amino}benzoic acid-formate] | – | – | > 16 | – | 0.82 | 160 | – | – |
| CNc1cc(F)cc2cc(C(=O)Nc3ccc(C(=O)NS(=O)(=O)N(C)C)cc3)c(=O)[nH]c12 [Example 146, N-{4-[(dimethylsulfamoyl)carbamoyl]phenyl}-6-fluoro-8-(methylamino)-2-oxo-1,2-dihydroquinoline-3-carboxamide] | 51.9 | 0.008 (≈ 0.0173 µM) | 16 (≈ 34.7 µM) | 0.43 | – | – | – | – |
| CNc1cc(F)cc2c(O)c(C(=O)Nc3ccc(C(=O)NS(=O)(=O)N(C)C)cc3)c(=O)[nH]c12 [Example 148, N-{4-[(dimethyl-sulfamoyl)carbamoyl]phenyl}-6-fluoro-4-hydroxy-8-(methylamino)-2-oxo-1,2-dihydroquinoline-3-carboxamide] | – | ≤ 0.0005 | 1 (≈ 2.09 µM) | – | 2.66 | 127 | – | – |
| CNc1cc(F)cc2c(O)c(C(=O)Nc3ccc(C(=O)O)cc3CN3CCCCC3)c(=O)[nH]c12.O=C(O)C(F)(F)F [Example 153, 4-{[6-fluoro-4-hydroxy-8-(methylamino)-2-oxo-1,2-dihydroquinoline-3-carbonyl]amino}-3-[(piperidine-1-yl)methyl]benzoic acid-trifluoroacetate] | – | 0.06 | 8 | – | 7.53 | 4930 | – | – |
